# Laboratory results as given in article PMC6017342, “Discovery of Oxime Ethers as Hepatitis B Virus (HBV) Inhibitors by Docking, Screening and In Vitro Investigation” (Molecules : A Journal of Synthetic Chemistry and Natural …, 2018).
# Where “and” joins values, the source holds several entries; their conditions need not be identical. Equal values may be shown once. Read-outs that look alike come from different tables or passages of the source.
# How the values were obtained:
# [1] = test system: secretion of HBsAg in HepG2.2.15 cells; assay: microbe, parasite or virus in culture; format: cell-based, Hepatitis B virus; details: for IC50 / HBsAg IC50: - = inhibition ratio less than 50% in the test concentration range
# From the text: (§1) The anti-HBV activities of the compounds were expressed as the concentration of compound that achieved 50% inhibition (IC50) to the secretion of HBsAg and HBeAg. […] The cytotoxicity of compounds was expressed as the concentration of compound required to kill 50% (TC50) of the HepG2.2.15 cells.
# (§2) HepG2.2.15 (clonal cells derived from human hepatoma cell line G2) cells were provided by the Chinese Academy of Medical Sciences (P.R. China) and maintained in minimal essential medium (MEM) supplemented with 10% fetal bovine serum and 380 μg/mL of G418, 50 ug/mL of kanamycin, and 0.03% L-glutamine at 37 °C in a 5% CO2 atmosphere with 100% humidity.
# (§3) HepG2.2.15 cells were seeded at a density of 1 × 10^5 cells/ml ([…]) in 96-well plates and maintained at 37 °C for 24 h prior to extract addition, followed by treatment with various concentrations of drugs. […] Cells were treated with drug-containing fresh medium every 3 d for up to 9 d in a time-dependent experiment. Medium was taken at the 9th day of the treatment and stored at −20 °C until analysis. The IC50 and selected index (SI) of each compound were calculated, respectively.
# (§4) The levels of HBV surface antigen (HBsAg) and HBV e antigen (HBeAg) in the supernatant of the HepG2.2.15 cell were simultaneously detected using enzyme-linked immunosorbent assay (ELISA) kits (Rongsheng Biotechnology Co. Ltd., Shanghai, China) according to the manufacturer’s instructions.The synthesized derivatives were expressed as the concentration of compound that achieved 50% inhibition (IC50) to the secretion of HBsAg and HBeAg. The selectivity index (SI) was determined as the ratio of CC50 to IC50, which is a major pharmaceutical parameter of estimates possible for future clinical application.
# HepG2.2.15 cells = assay: Cytotoxicity on HepG2.2.15 cells (MTT assay, 9 days); format: cell-based, human; details: HepG 2.2.15 cell
# Method: as §2
# HepG2.2.15 cells were seeded at a density of 1 × 10^5 cells/ml ([…]) in 96-well plates and maintained at 37 °C for 24 h prior to extract addition, followed by treatment with various concentrations of drugs. Lamivudine (3TC) was served as the positive control. Cells were treated with drug-containing fresh medium every 3 d for up to 9 d in a time-dependent experiment. Medium was taken at the 9th day of the treatment and stored at −20 °C until analysis. The IC50 and selected index (SI) of each compound were calculated, respectively.
# Logarithmically growing cells were seeded in 96-well culture plates at a density of 1 × 10^5 cells/mL ([…]). They were cultured for 24 h and then treated with various concentrations of drugs. Optical density (OD) values were read at 450 nm after 9 days and the percentage of cell death was calculated; the cells were treated with drug-containing fresh medium every 3 d for up to 9 d. After drug treatment, the cytotoxicity was measured using the MTT assay.
# [2] = test system: secretion of HBeAg in HepG2.2.15 cells; assay: Inhibition of HBeAg secretion in HepG2.2.15 cells (ELISA); format: cell-based, Hepatitis B virus; details: 9 days
# From the text: as §1, §2, §3, §4
# [3] = Hepatitis B virus, HepG2.2.15, 216 h, read-out: HBsAg IC50, HepG2.2.15 cells, 9 days, ELISA
# [4] = Hepatitis B virus, HepG2.2.15, 216 h, ELISA, - = inhibition ratio less than 50% in the test concentration range
# [5] = HepG2.2.15 cells, 9 days, ELISA
# [6] = ELISA, - = inhibition ratio less than 50% in the test concentration range
# [7] = HepG2.2.15 cells, 9 days, ELISA, read-out: HBsAg IC50
Compound,"IC50 [1, 3] [µM]",TC50 (50% cytotoxicity concentration) (HepG2.2.15 cells),"HBsAg SI (selectivity index = TC50/IC50) ([1]; HepG2.2.15 cells, 9 days)","IC50 [2, 4] [µM]","HBsAg IC50 [1, 5]",HBeAg SI (selectivity index = TC50/IC50) [2],"HBeAg IC50 [2, 6]",melting point [°C],"IC50 [1, 7] [µM]","IC50 [2, 6] [µM]"
"Nc1ccn([C@@H]2CS[C@H](CO)O2)c(=O)n1 [Compound 3TC, Lamivudine, reference compound]",291,517.40 µM,–,–,–,–,–,–,–,–
"CCOC(=O)CC/C(=N\OC)C(=O)c1ccc(C)cc1 [Compound 3a-1, Ethyl (E)-4-(4-methylbenzoyl)-4-[(methoxy)imino]butanoate]",293,>1500 µM,>5.12,> 359,–,–,–,–,–,–
"CCOC(=O)CC/C(=N\OC)c1ccc(OC)cc1 [Compound 3b-1, Ethyl (E)-4-(4-methoxyphenyl)-4-[(methoxy)imino]butanoate]",> 293,1383.74 µM,–,> 359,inhibitory activity could be neglected,–,–,–,–,–
"CCOC(=O)CC/C(=N\OC)c1ccc(Cl)cc1 [Compound 3c-1, Ethyl (E)-4-(4-chlorophenyl)-4-[(methoxy)imino]butanoate]",225,450.67 µM,2.00,> 359,–,–,–,–,–,–
"CO/N=C(\CCC(=O)OCc1ccco1)c1ccc(OC)cc1 [Compound 4b-1, Furan-2-ylmethyl (E)-4-(4-methoxyphenyl)-4-[(methoxy)imino]butanoate]",128,347.55 µM,2.72,> 359,–,–,–,–,–,–
"COc1ccc(/C(CCC(=O)OCc2ccco2)=N/OCc2ccccc2)cc1 [Compound 4b-2, Furan-2-ylmethyl (E)-4-(4-methoxyphenyl)-4-[(benzyloxy)imino]butanoate]",234,1153.49 µM,4.94,> 359,–,–,–,–,–,–
"CO/N=C(\CCC(=O)OCc1ccco1)c1ccc(Cl)cc1 [Compound 4c-1, Furan-2-ylmethyl (E)-4-(4-chlorophenyl)-4-[(methoxy)imino]butanoate]",> 293,>1500 µM,–,> 359,non,–,–,–,–,–
"CO/N=C(\CCC(=O)Nc1ccccc1)c1ccc(OC)cc1 [Compound 5b-1, (E)-4-(4-Methoxyphenyl)-4-[(methoxy)imino]-N-phenylbutanamide]",208,473.25 µM,2.28,> 359,–,–,–,–,–,–
"CO/N=C(\CCC(=O)Nc1ccccc1)c1ccc(Cl)cc1 [Compound 5c-1, (E)-4-(4-Chlorophenyl)-4-[(methoxy)imino]-N-phenylbutanamide]",–,1138.45 µM and >1500 µM,28.51,246,–,4.63,non,–,–,–
"O=C(CC/C(=N\OCc1ccccc1)c1ccc(Cl)cc1)Nc1ccccc1 [Compound 5c-2, (E)-4-(4-Chlorophenyl)-4-[(benzyloxy)imino]-N-phenylbutanamide]",–,–,–,–,–,–,–,116 to 117.9,–,–
(E)-4-(4-Methoxyphenyl)-4-[(benzyloxy)imino]-N-phenylbutanamide [Compound 5b-2],–,>1500 µM,>14.82,–,–,>7.83,–,–,101,192
(E)-4-(4-Methylbenzoyl)-4-[(methoxy)imino]-N-phenylbutanamide [Compound 5a-1],–,>1500 µM,>20.02,–,–,>5.48,–,–,74.9,274
Ethyl (E)-4-(4-chlorophenyl)-4-[(benzyloxy)imino]butanoate [Compound 3c-2],–,127.10 µM,1.34,–,–,1.34,–,–,94.7,93.9
Ethyl (E)-4-(4-methoxyphenyl)-4-[(benzyloxy)imino]butanoate [Compound 3b-2],–,429.88 µM,4.95,–,–,–,–,–,86.9,> 359
Ethyl (E)-4-(4-methylbenzoyl)-4-[(benzyloxy)imino]butanoate [Compound 3a-2],–,>1500 µM,–,–,non,–,–,–,> 293,> 359
Furan-2-ylmethyl (E)-4-(4-chlorophenyl)-4-[(benzyloxy)imino]butanoate [Compound 4c-2],–,>1500 µM,–,–,–,–,–,–,> 293,> 359
Furan-2-ylmethyl (E)-4-(4-methylbenzoyl)-4-[(benzyloxy)imino]butanoate [Compound 4a-2],–,>1500 µM,–,–,non,–,–,–,> 293,> 359
